# Publication PMC3578785, “Improved BM212 MmpL3 Inhibitor Analogue Shows Efficacy in Acute Murine Model of Tuberculosis Infection” (PLoS ONE, 2013)
# Where two headings read alike, the source gives them in different places.
# Tests used:
# [1] = test system: H37Rv; design: species or system mice; details: mouse, in vivo, po
# [2] = test system: HepG2 cells
# [3] = in vitro; assay type: in vitro ADME, human; details: for half-life: read-out: t1/2 in human microsomes
# Description: (§1) Protocol S6. Microsomal fraction stability experimental procedure.
# (§2) Pooled mouse and human liver microsomes are purchased from Xenotech. Microsomes (final protein concentration 0.5 mg/mL, MgCl2 (final concentration = 5 mM) and test compound (final substrate concentration = 0.5 µM; final DMSO concentration = 0.5%) in 0.1M phosphate buffer pH 7.4 were pre-incubated at 37°C prior to the addition of NADPH (final concentration = 1 mM) to initiate the reaction. The final incubation volume was 600 µL. A control incubation was included for each compound tested where 0.1 M phosphate buffer pH 7.4 is added instead of NADPH (minus NADPH). One control compound was included with each species. All incubations were performed singularly for each test compound. Each compound was incubated for 30 minutes and samples (90 µL) of incubate were taken at 0, 5, 15, 20 and 30 min. The control (minus NADPH) was sampled at 30 min only. The reactions were stopped by the addition of sample to 200 µL Acetonitrile:Methanol 3:1 containing internal standard. The terminated samples were centrifuged at 2.500 rpm for 20 min at 4°C to precipitate the protein.
# (§3) Quantitative Analysis: following protein precipitation, the samples were analyzed using specific […]
# (§4) Data Analysis: from a plot of ln peak area ratio (compound peak area/internal standard peak area) against time, the gradient of the line was determined. Subsequently, half-life and intrinsic clearance were calculated using the equations below:
# (§5) Elimination rate constant (k) = (- gradient)
# (§6) Half life (t1/2) (min) = […]
# (§7) Intrinsic Clearance (CLint) (mL/min/g protein) = […] where V=Incubation volume mL/g microsomal protein.
# [4] = in vitro; assay type: in vitro ADME, mouse; details: for half-life / Cli mouse: pH 7.4; for half-life: read-out: t1/2 in mouse microsomes; for Cli mouse: 0.5 µM
# Description: as §1, §2, §3, §4, §5, §6, §7
# [5] = in vitro; details: African green monkey
# [6] = in vivo; details: female, C57BL/6, mouse, po
# [7] = test system: M. tuberculosis H37Rv; assay: microbe, parasite or virus in culture; assay type: cell-based; details: Mycobacterium tuberculosis, aerobic conditions
# [8] = in vitro; details: plasma, pH 7.4
# [9] = physchem
# [10] = molecular target: human serum albumin (HSA) (Homo sapiens, UniProt P02768); assay type: in vitro ADME
# Chain of human serum albumin (HSA) (P02768 25-609): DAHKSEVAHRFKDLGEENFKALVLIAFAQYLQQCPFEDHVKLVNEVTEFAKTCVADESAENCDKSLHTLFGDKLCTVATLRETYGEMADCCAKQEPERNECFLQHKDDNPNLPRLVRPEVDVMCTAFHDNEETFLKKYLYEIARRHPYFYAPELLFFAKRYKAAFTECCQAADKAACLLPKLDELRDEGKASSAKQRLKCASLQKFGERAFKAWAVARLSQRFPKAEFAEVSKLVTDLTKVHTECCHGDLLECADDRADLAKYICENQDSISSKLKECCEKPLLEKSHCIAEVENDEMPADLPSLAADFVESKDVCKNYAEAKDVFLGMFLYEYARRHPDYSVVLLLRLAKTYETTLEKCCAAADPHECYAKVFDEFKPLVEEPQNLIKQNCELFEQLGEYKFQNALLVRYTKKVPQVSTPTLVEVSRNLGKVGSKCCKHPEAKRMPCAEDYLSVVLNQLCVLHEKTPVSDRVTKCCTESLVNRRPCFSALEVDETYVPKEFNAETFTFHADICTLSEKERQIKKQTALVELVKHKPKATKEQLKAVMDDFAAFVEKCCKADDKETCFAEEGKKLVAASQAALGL
# Description: Standard physical chemical property determination methods were used. Please see the Supporting Information for details.
# Protocol S4. Determination of compounds binding to human serum albumin (HSA).
# The determination of compounds binding to human serum albumin (HSA) was carried out by retention time measurements using immobilized HSA HPLC columns obtained from Chiral Technologies Ltd, France. The column dimensions were 50x3 mm. The mobile phase was 50 mM ammonium acetate buffer pH 7.4 and HPLC grade 2-propanol. HPLC Method: flow rate 1.8 ml/min applying 2.5 min 2-propanol gradient up to 30%. From 2.5 min to 4.5 min the 2-propanol concentration in the mobile phase was kept at 30%. From 4.5 min to 4.6 min, the 2-propanol concentration was decreased to 0% and kept like that until the end of the gradient run which was 6 min. A calibration set of compounds was first analyzed for which plasma protein binding data were available: Warfarin, Nizatidine, Bromazepam, Carbamazepine, Budesonide, Nicardipine, Indomethacine, Piroxicam, Naproxen. The calculation of the HSA binding data expressed as %HSA was carried out as described previously.
# [11] = not given; remark: listed apart in the source
# [12] = at 1 µM
# [13] = test system: Vero cells
# [14] = test system: M. tuberculosis H37Rv bacilli; details: cited from earlier work
Molecule,"Tox50, cytotoxicity in HepG2 cells ([2]; human, 48 h) [µM]","Cli human ([3]; human, 0.5 µM, pH 7.4) [mL/min/g]","half-life ([3]; pH 7.4, human microsomes) [min]",half-life ([4]; mouse microsomes) [min],CC50 at 72 h [5] [µM],melting point [°C],MIC [7] [µM],fraction unbound at 1 µM [8],chromatographic logD ([9]; pH 2),chromatographic logD ([9]; pH 7.4),chromatographic logD ([9]; pH 10.5),"HSA (%) binding ([10]; human, pH 7.4) [%]",Cli mouse [4] [mL/min/g],other results
"Cc1c(CN2CCOCC2)cc(-c2ccc(C(C)C)cc2)n1-c1ccc(F)cc1 [Compound 9, 2-Methyl-3-[(morpholin-4-yl)-methyl]-5-[4-(i-propyl)phenyl]-1-[4-(fluoro)phenyl]-1H-pyrrole]",15.3,<0.5,> 30,> 30,50.1,120,0.12,< 0.001,1.47,4.57,4.95,97.71,–,ED99 (dose that reduces 2 logs bacterial burden in the lungs of mice; 95% confidence interval in parenthesis) [1]: 49 (43–54) mg/kg; AUC(0-inf) ([6]; 50 mg/kg): 11.6 µM·h; Cmax ([6]; 50 mg/kg): 1620 nM; Tmax ([6]; 50 mg/kg): 60 min; half-life ([6]; 50 mg/kg): 60 min
"CCCc1ccc(-n2c(-c3ccc(Cl)cc3)cc(CN3CCOCC3)c2C)cc1 [Compound 16, 2-Methyl-3-[(morpholin-4-yl)-methyl]-5-[4-(chloro)phenyl]-1-[4-(propyl)phenyl]-1H-pyrrole]",15.4,<0.5,> 30,> 30,60.1,94,0.6,< 0.001,1.72,5.61,5.86,98.24,–,–
"Cc1c(CN2CCOCC2)cc(-c2ccc(Cl)cc2)n1-c1ccc(C(C)C)cc1 [Compound 17, 2-Methyl-3-[(morpholin-4-yl)-methyl]-5-[4-(chloro)phenyl]-1-[4-(i-propyl)phenyl]-1H-pyrrole]",14.7,0.5 ± 0,> 30,19.6,175,113,0.9,< 0.001,1.67,5.43,5.7,98.19,3.8 ± 0.1,–
"COc1ccc(-n2c(-c3ccc(C)cc3)cc(CN3CCOCC3)c2C)cc1 [Compound 18, 2-Methyl-3-[(morpholin-4-yl)-methyl]-5-[4-(methyl)phenyl]-1-[4-(methoxy)phenyl]-1H-pyrrole]",11.7,1.26,59.9,< 5,208,128,2,0.007,1.04,3.6,4.12,95.87,8.92,–
"CCc1ccc(-c2cc(CN3CCOCC3)c(C)n2-c2ccc(OC)cc2)cc1 [Compound 19, 2-Methyl-3-[(morpholin-4-yl)-methyl]-5-[4-(ethyl)phenyl]-1-[4-(methoxy)phenyl]-1H-pyrrole]",5.7,1.71,> 30,< 5,30,101,0.3,0.003,1.21,3.99,4.5,96.65,9.45,–
"CCCc1ccc(-c2cc(CN3CCOCC3)c(C)n2-c2ccc(OC)cc2)cc1 [Compound 20, 2-Methyl-3-[(morpholin-4-yl)-methyl]-5-[4-(propyl)phenyl]-1-[4-(methoxy)phenyl]-1H-pyrrole]",14.3,0.61,> 30,10.9,> 256,107,0.3,< 0.001,1.4,4.46,4.93,97.17,5.75,–
"COc1ccc(-n2c(-c3ccc(C(C)C)cc3)cc(CN3CCOCC3)c2C)cc1 [Compound 21, 2-Methyl-3-[(morpholin-4-yl)-methyl]-5-[4-(i-propyl)phenyl]-1-[4-(methoxy)phenyl]-1H-pyrrole]",14.1,2.15,> 30,10.7,28.2,109,0.3,0.001,1.35,4.32,4.81,97.07,6.07,–
"COc1ccc(-c2cc(CN3CCOCC3)c(C)n2-c2ccc(C)cc2)cc1 [Compound 22, 2-Methyl-3-[(morpholin-4-yl)-methyl]-5-[4-(methoxy)phenyl]-1-[4-(methyl)phenyl]-1H-pyrrole]",11.3,1.14,> 30,< 5,50.1,115,0.6,0.008,1.02,3.57,4.11,95.64,12.62,–
"CCc1ccc(-n2c(-c3ccc(OC)cc3)cc(CN3CCOCC3)c2C)cc1 [Compound 23, 2-Methyl-3-[(morpholin-4-yl)-methyl]-5-[4-(methoxy)phenyl]-1-[4-(ethyl)phenyl]-1H-pyrrole]",14.7,<0.5,> 30,< 5,16,72,0.3,0.002,1.24,4.05,4.52,96.79,7.8 ± 0.5,–
CCCc1ccc(-n2c(-c3ccc(OC)cc3)cc(CN3CCOCC3)c2C)cc1 [Compound 24],–,–,–,–,–,–,–,–,–,–,–,–,–,"Tox50, cytotoxicity in HepG2 cells [2]: 2.1 µM; Cli human [3]: <0.5 mL/min/g; t1/2 in human microsomes ([3]; human microsomes): >30 min; t1/2 in mouse microsomes ([4]; mouse microsomes): >30 min; CHILogD pH 2 ([11]; pH 2): 1.46; CHILogD pH 7.4 ([11]; pH 7.4): 4.52; CHILogD pH 10.5 ([11]; pH 10.5): 4.97; PPB (%) [12]: >99.9%; HSA (%) binding [10]: 97.43%; CC50 [13]: 31.2 µM"
"CO[C@H]1/C=C/O[C@@]2(C)Oc3c(C)c(O)c4c(O)c(c(/C=N/N5CCN(C)CC5)c(O)c4c3C2=O)NC(=O)/C(C)=C\C=C\[C@H](C)[C@H](O)[C@@H](C)[C@@H](O)[C@@H](C)[C@H](OC(C)=O)[C@@H]1C [Rifampin, reference compound]",–,–,–,–,207,–,–,–,–,–,–,–,–,ED99 (dose that reduces 2 logs bacterial burden in the lungs of mice; 95% confidence interval in parenthesis) [1]: 9.8 (9.0–11) mg/kg; AUC(0-inf) ([6]; 10.4 mg/kg): 102 µM·h
CC(C)=CCC/C(C)=C/CNCCNC1C2CC3CC(C2)CC1C3 (stereo not drawn) [SQ109],–,–,–,–,–,–,–,–,–,–,–,–,–,activity against M. tuberculosis H37Rv bacilli in anaerobic models [14]: neither AU1235 nor SQ109 gave detectable activity
AU1235,–,–,–,–,–,–,–,–,–,–,–,–,–,activity against M. tuberculosis H37Rv bacilli in anaerobic models ([14]; ref [17]-[19]): neither AU1235 nor SQ109 gave detectable activity
